Test results: US8207212B2, “Methods and devices for epithelial protection during photodynamic therapy” (The General Hospital Corporation, priority 2003, dated 2012)

Experiments:
[1] = system: rat epidermal keratinocyte (REK) cells; assay: PpIX formation in rat epidermal keratinocyte cells incubated with ALA at different temperatures; type: cell-based; conditions: 0.5 mM ALA, after three hours (FIG. 2)
Procedure: Two trials of rat epidermal keratinocyte (REK) cells were incubated with 0.5 mM ALA at temperatures of 21° C. and 37° C., respectively, for varying times. […] Accordingly, a temperature gradient of about 16° C. is more than sufficient to inhibit metabolism of a photosensitizing agent in epidermal tissue surrounding a targeted treatment site.
Several trials of rat epidermal keratinocyte (REK) cells were incubated with various amounts of ALA ranging from 0.1 mM to 0.5 mM, at various temperatures ranging from 15° C. to 40° C.

[2] = system: rat epidermal keratinocyte (REK) cells; assay: Effect of DOHA pre-incubation on ALA-induced PpIX formation in REK cells; type: cell-based; conditions: washed, then 0.25 mM ALA for 3 hours (FIG. 4)
Procedure: Several trials of rat epidermal keratinocyte (REK) cells were pre-incubated with various amounts of 4-dioxoheptanoic acid (DOHA) ranging from 1^−8 M to 1^−4 M. The cells were then washed, and incubated with 0.25 mM ALA for 3 hours.

human skin = assay: PpIX fluorescence imaging in human skin after topical DOHA followed by topical ALA; conditions: human skin in vivo, DOHA topical 0.1%, 0.3%, 1% for 1 hour, followed by topical 5% ALA (FIG. 6)
Procedure: DOHA was topically applied to human skin in concentrations of (a) 0.1%, (b) 0.3%, and (c) 1% for 1 hour, followed by topical application of 5% ALA. PpIX fluorescence was then imaged.

NCC(=O)CCC(=O)O [ALA, aminolevulinic acid]
PpIX concentration ([1]; 21° C.): less than 50 pmol/10^6 | PpIX concentration ([1]; 37° C.): greater than 400 pmol/10^6

CC(=O)CC(=O)CCC(=O)O [DOHA, 4-dioxoheptanoic acid]
PpIX formation ([2]; REK cells pre-incubated with DOHA at concentrations greater than 10^−5 M): even further chemical inhibition | PpIX formation ([2]; REK cells pre-incubated with DOHA at concentrations greater than 10^−7 M): significantly inhibited | PpIX formation (fluorescence) (human skin): effective to chemically inhibit PpIX formation
